Values of other authors, collected in US12180499B2, “Compositions and methods for impeding transcription of expanded microsatellite repeats” (University of Florida Research Foundation, Inc., priority 2016, dated 2024).
Starred links: 1 amine or outer side, 2 acyl side, 3 side chain; linkers in the order of their positions; H or OH if unused. Positions of bridges follow the written chain, without caps; N, C: chain ends. Non-standard residues stand in square brackets, D forms with d. Residues, ends and D or L forms follow the SMILES beside them. Chains are numbered I, II in the order given. Actinocin(9to1) = Cc1c2oc3c(C)ccc(C(=O)[*:1])c3nc-2c(C(=O)[*:2])c(N)c1=O; NMeV = CN[C@H](C(=O)O)C(C)C; Sar = CNCC(=O)O

System: expanded CTG repeats
Conditions: low nanomolar doses; cited from earlier work

## Cc1c2oc3c(C)ccc(C(=O)N[C@@H]4C(=O)N[C@H](C(C)C)C(=O)N5CCC[C@H]5C(=O)N(C)CC(=O)N(C)[C@@H](C(C)C)C(=O)O[C@@H]4C)c3nc-2c(C(=O)N[C@@H]2C(=O)N[C@H](C(C)C)C(=O)N3CCC[C@H]3C(=O)N(C)CC(=O)N(C)[C@@H](C(C)C)C(=O)O[C@@H]2C)c(N)c1=O [actinomycin D] (I: T[dV]P[Sar][NMeV] / II: T[dV]P[Sar][NMeV]; ester I:1-I:C, II:1-II:C; linker I:N-II:N via Actinocin(9to1))
  transcription of expanded CTG repeats: preferentially impede transcription of expanded CTG repeats
